We go through 64 molecules from the PolyMetriX glass transition set.

The molecule `*/C=C(/*)c1ccccc1C[Si](C)(C)C` (repeat unit) yielded a glass transition temperature of 170.00 °C.
In turn, `*C(=O)Nc1cccc(C(=O)Nc2cccc(NC(=O)c3ccc4[nH]c(-c5cccc(-c6nc7cc(*)ccc7[nH]6)c5)nc4c3)c2)c1` (repeat unit) gave a glass transition temperature of 331.00 °C.
In the case of `*C(=O)Nc1cccc(NC(=O)c2ccc3c(c2)C(=O)N(c2cccc(P(=O)(c4ccccc4)c4cccc(N5C(=O)c6ccc(*)cc6C5=O)c4)c2)C3=O)n1` (repeat unit), the glass transition temperature came to 156.00 °C.
Under `*C(=O)Nc1cccc(Oc2ccc(C(=O)c3ccc(Oc4cccc(NC(=O)c5ccc(*)nc5)c4)cc3)cc2)c1` (repeat unit) stands 154.00 °C.
Molecule `*C(=O)Nc1cccc(S(=O)(=O)c2cccc(NC(=O)c3ccc4c(c3)C(=O)N(c3cc(-c5nnc(-c6ccccn6)o5)cc(N5C(=O)c6ccc(*)cc6C5=O)c3)C4=O)c2)c1` (repeat unit) registered a glass transition temperature of 173.00 °C.
The same measure for `*C(=O)Nc1cccc(S(=O)(=O)c2cccc(NC(=O)c3ccc4c(c3)C(=O)N(c3ccc(-c5sc(-c6ccc(N7C(=O)c8ccc(*)cc8C7=O)cc6)c(-c6ccccc6)c5-c5ccccc5)cc3)C4=O)c2)c1` (repeat unit): 320.00 °C; for `*C(=O)Nc1ccccc1NC(=O)c1ccc(N2C(=O)c3ccc(*)cc3C2=O)cc1` (repeat unit): 215.00 °C; for `*C(=O)Nc1nc(NC(=O)c2ccc3c(c2)C(=O)N(c2ccc(Oc4cccc5c(N6C(=O)c7ccc(*)cc7C6=O)cccc45)cc2)C3=O)nc(-c2ccccc2)n1` (repeat unit): 291.00 °C.
Under `*C(=O)Oc1ccc(OC(=O)c2ccc3c(c2)C(=O)N(c2ccc(Cc4ccc(N5C(=O)c6ccc(*)cc6C5=O)cc4)cc2)C3=O)c(C(C)(C)C)c1` (repeat unit) stands 160.00 °C; under `*C(=O)Oc1ccc(OC(=O)c2ccc3c(c2)C(=O)N(c2ccc(S(=O)(=O)c4ccc(N5C(=O)c6ccc(*)cc6C5=O)cc4)cc2)C3=O)c(C(C)(C)C)c1` (repeat unit), 179.00 °C.
The same measure for `*C(=O)c1ccc(N(*)CCCCC)cc1` (repeat unit): 83.50 °C.
Molecule `*C(=O)c1ccc(N(*)CCCCCCC)cc1` (repeat unit) registered a glass transition temperature of 45.90 °C.
Under `*C(=O)c1ccc(N(*)CCCCCCCC)cc1` (repeat unit) stands 30.00 °C; under `*C(=O)c1ccc2c(c1)C(=O)N(c1ccc(C(=O)c3ccc(C(=O)c4ccc(N5C(=O)c6ccc(*)cc6C5=O)cc4)cc3)cc1)C2=O` (repeat unit), 286.00 °C; under `*CC#CC#CCOC(=O)c1ccc(C(=O)O*)cc1` (repeat unit), 143.00 °C.
The same measure for `*CC(COC(=O)O*)OCCCCCCOc1ccc(/C=C/c2ccc([N+](=O)[O-])cc2)cc1` (repeat unit): 32.00 °C; for `*CC(COC(=O)O*)OCCOc1ccc(/C=C/c2ccc([N+](=O)[O-])cc2)cc1` (repeat unit): 53.00 °C; for `*CC(F)(F)C(F)(F)C(F)(F)COC(=O)c1cc(C(=O)O*)cc(C(F)(F)C(F)(F)C(F)(F)C(F)(F)C(F)(F)C(F)(F)C(F)(F)F)c1` (repeat unit): 27.00 °C.
The same measure for `*CC(F)(F)C(F)(F)C(F)(F)COC(=O)c1cccc(C(F)(F)C(F)(F)C(F)(F)c2cccc(C(=O)O*)c2)c1` (repeat unit): 24.00 °C.
Turning to `*CCCCCOc1cccc(C(=O)OC(=O)c2cccc(O*)c2)c1` (repeat unit), the glass transition temperature was found to be 61.00 °C.
The same measure for `*CCCCCOc1cccc(NC(=O)c2ccc(C(=O)Nc3cccc(O*)c3)cc2)c1` (repeat unit): 135.00 °C.
The same measure for `*CCCCOc1ccc(C(=O)Nc2cccc(P(=O)(c3ccccc3)c3cccc(NC(=O)c4ccc(O*)cc4)c3)c2)cc1` (repeat unit): 191.00 °C; for `*CCCCOc1ccc(C(=O)OC(=O)c2ccc(O*)cc2)cc1` (repeat unit): 45.00 °C; for `*CCOCCOCCOc1cccc(NC(=O)c2cccc(C(=O)Nc3cccc(O*)c3)c2)c1` (repeat unit): 111.00 °C.
Molecule `*CCOCCOc1cccc(NC(=O)c2cccc(C(=O)Nc3cccc(O*)c3)c2)c1` (repeat unit) showed a glass transition temperature of 128.50 °C.
As to `*Nc1ccc(C(=O)c2c(C)c(C)c(C(=O)c3ccc(NC(=O)c4ccc(C(*)=O)cc4)cc3)c(C)c2C)cc1` (repeat unit), the glass transition temperature was found to be 345.00 °C.
The molecule `*Nc1cccc2c(NC(=O)c3ccc(C(*)=O)cc3)cccc12` (repeat unit) displayed a glass transition temperature of 305.00 °C.
For the molecule `*O/C(=C/CC)C(CC)C(*)=O` (repeat unit), the glass transition temperature was -15.90 °C.
Under `*OC(*)CCCCCC` (repeat unit) stands -116.00 °C; under `*OC(=O)OC1CC2CC(*)CC(C1)O2` (repeat unit), 207.00 °C.
Take `*OC(=O)OC1COC2C(*)COC12` (repeat unit): the glass transition temperature came to 140.00 °C.
Take `*OC(=O)c1ccc(/N=N/c2ccc(C(=O)OC3COC4C(*)COC34)cc2)cc1` (repeat unit): the glass transition temperature was 98.00 °C.
Under `*OC(=O)c1ccc(C(F)(F)C(F)(F)C(F)(F)c2ccc(C(*)=O)cc2)cc1` (repeat unit) stands 98.00 °C; under `*OC(=O)c1ccc(CCCCCCc2ccc(C(*)=O)cc2)cc1` (repeat unit), 20.00 °C; under `*OC(=O)c1ccc(CCCCCc2ccc(C(*)=O)cc2)cc1` (repeat unit), 42.50 °C.
`*OC(=O)c1cccc(C(*)=O)c1` (repeat unit) showed a glass transition temperature of 130.00 °C.
As for `*OC(COC(*)=O)COc1ccccc1` (repeat unit), the glass transition temperature was found to be 45.00 °C.
In turn, `*OC(COC(=O)C1=C(C(=O)OCC(COC(=O)C2=C(c3ccccc3)C3C=CC2C3)OC(=O)c2ccc(C(*)=O)cc2)C2C=CC1C2)COC(=O)C1=C(c2ccccc2)C2C=CC1C2` (repeat unit) registered a glass transition temperature of 74.00 °C.
Under `*OC(F)(F)C(F)(F)C(*)(F)F` (repeat unit) stands -109.00 °C; under `*OC(F)(F)C(F)(F)C(F)(F)C(*)(F)F` (repeat unit), -55.00 °C.
The same measure for `*OC1C(C)(C)C(OC(*)=O)C1(C)C` (repeat unit): 160.00 °C.
The same measure for `*OC1C(CO)OC(*)C(N)C1O` (repeat unit): 194.00 °C; for `*OC1C(CO)OC(*)C(O)C1O` (repeat unit): 332.00 °C.
`*OC1C(COCC)OC(*)C(OCC)C1OCC` (repeat unit): the glass transition temperature worked out at 131.2 °C.
The same measure for `*OC1C(COCO)OC(*)C(O)C1O` (repeat unit): 208.00 °C.
Turning to `*OCC(F)(F)C(F)(F)C(F)(F)COc1nc(F)c(F)c(OCC(F)(F)C(F)(F)C(F)(F)COc2c(F)c(*)nc(F)c2F)c1F` (repeat unit), the glass transition temperature is -10.00 °C.
On to `*ON(C(F)(F)C(*)(F)F)C(F)(F)C(F)(F)Br` (repeat unit), for which the glass transition temperature was -17.00 °C.
Consider `*ON(C(F)(F)F)C(F)(Br)C(*)(F)F` (repeat unit), for which the glass transition temperature came out at 3.00 °C.
The same measure for `*O[Si](C)(C)O[Si](C)(C)O[Si](C)(C)O[Si](C)(C)O[Si](C)(C)O[Si](C)(C)OC1=C(*)c2cccc3cccc1c23` (repeat unit): -93.00 °C.
The same measure for `*[O][Sn]([CH2]CCC)([CH2]CCC)[O]C(=O)CCCCC(*)=O` (repeat unit): 110.00 °C.
In turn, `*Oc1c(C)cc(C(=O)c2ccc(*)cc2)cc1C` (repeat unit) gave a glass transition temperature of 200.00 °C.
In turn, `*Oc1cc(C(C)(C)c2ccccc2)c(OC(=O)c2cccc(C(*)=O)c2)cc1C(C)(C)c1ccccc1` (repeat unit) yielded a glass transition temperature of 180.00 °C.
Under `*Oc1cc(CCCC)cc(OC(=O)c2cccc(C(*)=O)c2)c1` (repeat unit) stands 97.50 °C; under `*Oc1cc(OC(=O)c2ccc(C)cc2)c(OC(=O)CCCCCCCCCCCCCCC(*)=O)cc1OC(=O)c1ccc(C)cc1` (repeat unit), 27.00 °C; under `*Oc1cc(OC(=O)c2ccc(OCCCC)cc2)c(OC(=O)C(C)(C)CCC(*)=O)cc1OC(=O)c1ccc(OCCCC)cc1` (repeat unit), 61.00 °C.
The same measure for `*Oc1cc(OC(=O)c2ccc(OCCCCC)cc2)c(OC(=O)CCCC(*)=O)cc1OC(=O)c1ccc(OCCCCC)cc1` (repeat unit): 44.00 °C; for `*Oc1ccc(C(=O)c2ccc(OC(=O)OC3C(C)(C)C(OC(*)=O)C3(C)C)cc2)cc1` (repeat unit): 125.00 °C; for `*Oc1ccc(C(c2ccc(OC(=O)OC3C(C)(C)C(OC(*)=O)C3(C)C)cc2)(C(F)(F)F)C(F)(F)F)cc1` (repeat unit): 142.00 °C.
The same measure for `*Oc1ccc(C(c2ccccc2)c2ccc(OC(*)=O)cc2C)c(C)c1` (repeat unit): 182.00 °C; for `*Oc1ccc(C2(c3ccc(OC(=O)OC4C(C)(C)C(OC(*)=O)C4(C)C)cc3)c3ccccc3-c3ccccc32)cc1` (repeat unit): 214.00 °C.
`*Oc1ccc(OC(=O)c2ccc(C(*)=O)cc2)cc1CCC(C)CC` (repeat unit) returned a glass transition temperature of 237.00 °C.
Under `*Oc1ccc(OC(=O)c2ccc(OCCCCCCCCOc3ccc(C(*)=O)cc3)cc2)cc1C(=O)CC` (repeat unit) stands 70.00 °C; under `*Oc1ccc(OC(=O)c2cccc(Sc3ccc(OC(=O)c4ccc(C(=O)Oc5ccc(Sc6cccc(C(*)=O)c6)cc5)cc4)cc3)c2)cc1C` (repeat unit), 106.50 °C; under `*c1cccc(C(=O)Nc2cccc(S(=O)(=O)c3cccc(NC(=O)c4cccc(N5C(=O)c6ccc(-c7cccc8c7C(=O)N(*)C8=O)cc6C5=O)c4)c3)c2)c1` (repeat unit), 261.00 °C.
